Test results from publication PMC5365648, “Pharmacokinetics of the Novel Echinocandin CD101 in Multiple Animal Species” (Antimicrobial Agents and Chemotherapy, 2017).
Starred links: 1 amine or outer side, 2 acyl side, 3 side chain; linkers in the order of their positions; H or OH if unused. Positions of bridges follow the written chain, without caps; N, C: chain ends. Non-standard residues stand in square brackets, D forms with d. Residues, ends and D or L forms follow the SMILES beside them. *: point of attachment. pTerphenylCO(4''-OnC5H11) = CCCCCOc1ccc(-c2ccc(-c3ccc(C(=O)*)cc3)cc2)cc1; Orn(4R-OH,5R-OH) = O=C([C@H](C[C@@H](O)[C@@H](O)N[*:3])N[*:1])[*:2]; hTyr(3S-OH,4S-OH) = N[C@H](C(=O)O)[C@H](O)[C@@H](O)c1ccc(O)cc1; Pro(3S-OH,4S-Me) = C[C@H]1CN[C@H](C(=O)O)[C@H]1O; Hyp = O=C(O)[C@@H]1C[C@@H](O)CN1

What was measured:
[1] = Mouse pharmacokinetics, i.v. bolus; conditions: in vivo, iv, male ICR (CD-1) mice, single 1 mg/kg slow i.v. bolus, plasma, LC-MS/MS, noncompartmental from mean profile, n = 3/time point
Description: A single 1-mg/kg dose of CD101 or anidulafungin was administered by slow i.v. bolus (∼2 min) to male ICR (CD-1) mice (n = 3/group/time point). Blood samples (via cardiac puncture) were collected for plasma processing predose and at 0.083 (5 min), 0.5, 1, 4, 8, 24, 48, and 72 h postdose. PK profiles were generated based on mean results from the three animals sampled at each time point. In another study, a single 1-, 4-, or 16-mg/kg dose of CD101 was administered by i.p. injection to female ICR (CD-1) mice (n = 3/time point/dose), and blood samples (via cardiac puncture) were drawn for plasma processing at 1, 3, 6, 12, 24, 48, 72, and 96 h postdose.
(§1) For each of the pharmacokinetic studies, whole-blood samples (K3EDTA as anticoagulant) were collected and centrifuged within 30 min of collection. The resulting plasma was harvested and stored at −20°C until analysis. Tissue samples were homogenized by a bead-based homogenizer following the addition of deionized water to excised tissue in a 2:1 (vol/wt) ratio and stored at −20°C until analysis. Prior to analysis, plasma or homogenized tissue samples were quenched with acetonitrile (3:1, acetonitrile-plasma or tissue ratio) containing an appropriate internal standard (isotopically labeled d9-CD101 [mouse and rat] or a structural analog [dog, monkey, and chimpanzee]). Plasma and tissue homogenate concentrations (quantified against calibration standards processed the same way) were determined by reverse-phase, gradient liquid chromatography with tandem mass spectrometric detection (LC-MS/MS) using an AB-SCIEX API 3200Q/4000 mass spectrometry system. Calibration standard ranges were the following: 0.400 (lower limit of quantitation, [LLOQ]) to 200 μg/ml (CD101, mouse), 0.040 (LLOQ) to 10 μg/ml (anidulafungin, mouse), 0.002 (LLOQ) to 10 μg/ml (CD101, rat), 0.005 (LLOQ) to 10 μg/ml (anidulafungin, rat), 0.050 (LLOQ) to 10 μg/ml (CD101, dog), 0.020 (LLOQ) to 10 μg/ml (anidulafungin, dog), 0.010 (LLOQ) to 10 μg/ml (CD101, monkey), 0.001 (LLOQ) to 10 μg/ml (anidulafungin, monkey), 0.015 (LLOQ) to 10 μg/ml (CD101, chimpanzee), and 0.015 (LLOQ) to 10 μg/ml (anidulafungin, chimpanzee). When necessary, dilutions with blank matrix were made for samples that quantified above the upper limit of quantitation. The methods used in the analysis were qualified as fit for purpose: calibration standards were matrix matched with the exception that human plasma calibration standards were used to analyze chimpanzee plasma samples due to the rarity of blank chimpanzee plasma, and, for each analytical batch, triplicate calibration standards were included at the beginning, approximately in the middle, and at the end of the batch. Following analysis, quantitation was carried out by a calibration curve comprising the analyte/internal standard area ratio versus concentration. Analytical batch acceptance followed the general guidance that triplicate standards/quality controls be within ±20% for accuracy (percentage of nominal concentration) and ≤20% for precision (percent coefficient of variation).
(§2) Pharmacokinetic parameters were calculated by noncompartmental analysis using Phoenix WinNonlin (version 6.3; Pharsight, Mountain View, CA) from either individual or mean (mouse) concentration-time profiles. An unpaired t test was used to compare mean exposures from male and female rats.

[2] = Cynomolgus monkey pharmacokinetics, i.v. bolus; set-up: species or system cynomolgus monkeys; conditions: in vivo, iv, cynomolgus monkeys, single 2.8 mg/kg slow i.v. bolus, plasma, LC-MS/MS, n = 3
Description: A single dose of 2.13 mg/kg CD101 or 2.8 mg/kg anidulafungin was administered by slow i.v. bolus (∼10 min) to cynomolgus monkeys (n = 3/group), and blood samples (via peripheral vein) were drawn for plasma processing at 0.167, 0.5, 1, 3, 8, 12, 24, 48, and 72 h postdose.
as §1, §2

[3] = Chimpanzee pharmacokinetics, i.v. infusion; type: in vivo, chimpanzees; conditions: in vivo, iv, female chimpanzees, single 1 mg/kg i.v. infusion (1 h), plasma, LC-MS/MS, noncompartmental, n = 2
Description: A single 1-mg/kg dose of CD101 or anidulafungin was administered by i.v. infusion (1 h) to female chimpanzees (n = 2/group), and blood samples (via peripheral vein) were drawn for plasma processing at the midpoint of infusion, at the end of infusion, at 2, 4, 8, 12, 24, 48, and 72 h postdose, and on days 5, 7, and 10 postdose.
as §1, §2

[4] = radiolabeled drug, bile duct-cannulated rats, ref [14], cited from earlier work
Description: In that study, which utilized radiolabeled anidulafungin in bile duct-cannulated rats, 94.8% of the radioactive dose was accounted for through 168 h (or 7 days). […] In a similar study of CD101 conducted with nonradiolabeled material, no biotransformati ...

[5] = ref [13]; cited from earlier work
Source text: In the case of brain concentrations, there was little difference across all the collection intervals. Given the relatively low concentrations and small differences across times, measured concentrations may reflect contamination from residual whole blood during the collec ...

[6] = for CD101 the effective half-life (covers the majority of the AUC), ref [10]; cited from earlier work
Description: The half-life of CD101 in human is about 3-fold longer (about 90 h) than that of anidulafungin (about 30 h) ([10]). It should be noted that 90 h is the effective half-life of CD101 (i.e., the half-life that covers the majority of the AUC), with a longer, later-phase half-life evident at lower concentration ...

Compound | half-life [1] | clearance ([1]; read-out: CL (clearance)) | half-life [2] | half-life [3] | clearance ([3]; read-out: CL (clearance)) | radioactive dose accounted for ([4]; through 168 h (7 days)) | drug-derived radioactivity recovered in bile, % of dose ([4]; through 168 h) | drug-derived radioactivity recovered in carcass, % of dose ([4]; through 168 h) | drug-derived radioactivity recovered in feces, % of dose ([4]; through 168 h) | radioactivity recovered in urine ([4]; through 168 h) | Tissue/plasma AUC ratio, kidney [5] | Tissue/plasma AUC ratio, liver [5] | Tissue/plasma AUC ratio, lung [5] | half-life in human [6]
CCCCCOc1ccc(-c2ccc(-c3ccc(C(=O)N[C@H]4C[C@@H](O)[C@@H](O)NC(=O)[C@@H]5[C@@H](O)[C@@H](C)CN5C(=O)[C@H]([C@@H](C)O)NC(=O)[C@H]([C@H](O)[C@@H](O)c5ccc(O)cc5)NC(=O)[C@@H]5C[C@@H](O)CN5C(=O)[C@H]([C@@H](C)O)NC4=O)cc3)cc2)cc1 [anidulafungin] ({pTerphenylCO(4''-OnC5H11)}-[Orn(4R-OH,5R-OH)]T[Hyp][hTyr(3S-OH,4S-OH)]T[Pro(3S-OH,4S-Me)]; lactam 1-C) | 19 h | 0.21 mL/min/kg | 8 h | 30 h | 0.42 mL/min/kg | 94.8% | 33.9% | 40.4% | 17.1% | 2.94% | 10.7 | 12.4 | 10.4 | about 30 h
caspofungin |  |  |  |  |  |  |  |  |  |  | 5.5 | 10.2 | 1.2 | 
micafungin |  |  |  |  |  |  |  |  |  |  | 3.2 | 7.8 | 3.6 | 
